According to patent publication US20010021697A1, “METHODS AND COMPOSITIONS FOR THE TREATMENT OF MAMMALIAN INFECTIONS EMPLOYING MEDICAMENTS COMPRISING HYMENOPTERA VENOM, PROTEINAGEOUS OR POLYPEPTIDE COMPONENTS THEREOF, OR ANALOGUES OF SUCH PROTEINACEOUS OR POLYPEPTIDE COMPONENTS” (priority 1987, published 2001):
Where two headings read alike, the source gives them in different places.

Assays:
Type in all cases: cell-based
E. coli G1108E = assay: Checkerboard titration synergy assay of melittin analogues with polymyxin B; conditions: polymyxin B 6 units/ml, peptide 5 ug/ml, n = 6
E. coli #G1880E = system: E. coli #G1880E
[1] = system: E. Coli strain No. G1108E; assay: Checkerboard titration synergy assay of natural melittin and analogue #6 with polymyxin B

## Polymyxin B
E. coli G1108E; 0 hours after culture inoculation
  Optical densities (OD660), mean: .007
E. coli G1108E; 2 hours after culture inoculation
  Optical densities (OD660), mean: .088
E. coli G1108E; 4 hours after culture inoculation
  Optical densities (OD660), mean: .470
E. coli G1108E; 6 hours after culture inoculation
  Optical densities (OD660), mean: .926
E. coli G1108E; 8 hours after culture inoculation
  Optical densities (OD660), mean: 1.02
E. coli G1108E; 10 hours after culture inoculation
  Optical densities (OD660), mean: 1.04
E. coli G1108E; 12 hours after culture inoculation
  Optical densities (OD660), mean: 1.06
E. coli #G1880E; POLY B = 1.5, HBV = 0, T0
  MEAN A660: 0.012
E. coli #G1880E; POLY B = 1.5, HBV = 0, T2
  MEAN A660: 0.040
E. coli #G1880E; POLY B = 1.5, HBV = 0, T4
  MEAN A660: 0.411
E. coli #G1880E; POLY B = 1.5, HBV = 0, T6
  MEAN A660: 0.984
E. coli #G1880E; POLY B = 1.5, HBV = 0, T8
  MEAN A660: 1.020
E. coli #G1880E; POLY B = 1.5, HBV = 0, T12
  MEAN A660: 1.075
E. coli #G1880E; POLY B = 1.5, HBV = 0, T24
  MEAN A660: 1.200
E. coli #G1880E; POLY B = 3, HBV = 0, T0
  MEAN A660: 0.012
E. coli #G1880E; POLY B = 3, HBV = 0, T2
  MEAN A660: 0.040
E. coli #G1880E; POLY B = 3, HBV = 0, T4
  MEAN A660: 0.138
E. coli #G1880E; POLY B = 3, HBV = 0, T6
  MEAN A660: 0.642
E. coli #G1880E; POLY B = 3, HBV = 0, T8
  MEAN A660: 0.943
E. coli #G1880E; POLY B = 3, HBV = 0, T12
  MEAN A660: 0.985
E. coli #G1880E; POLY B = 3, HBV = 0, T24
  MEAN A660: 1.116
E. coli #G1880E; POLY B = 6, HBV = 0, T0
  MEAN A660: 0.012
E. coli #G1880E; POLY B = 6, HBV = 0, T2
  MEAN A660: 0.040
E. coli #G1880E; POLY B = 6, HBV = 0, T4
  MEAN A660: 0.022
E. coli #G1880E; POLY B = 6, HBV = 0, T6
  MEAN A660: 0.014
E. coli #G1880E; POLY B = 6, HBV = 0, T8
  MEAN A660: 0.011
E. coli #G1880E; POLY B = 6, HBV = 0, T12
  MEAN A660: 0.109
E. coli #G1880E; POLY B = 6, HBV = 0, T24
  MEAN A660: 0.975
E. coli #G1880E; POLY B = 12, HBV = 0, T0
  MEAN A660: 0.012
E. coli #G1880E; POLY B = 12, HBV = 0, T2
  MEAN A660: 0.040
E. coli #G1880E; POLY B = 12, HBV = 0, T4
  MEAN A660: 0.018
E. coli #G1880E; POLY B = 12, HBV = 0, T6
  MEAN A660: 0.011
E. coli #G1880E; POLY B = 12, HBV = 0, T8
  MEAN A660: 0.009
E. coli #G1880E; POLY B = 12, HBV = 0, T12
  MEAN A660: 0.075
E. coli #G1880E; POLY B = 12, HBV = 0, T24
  MEAN A660: 0.472
E. coli #G1880E; POLY B = 625, HBV = 0, T0
  MEAN A660: 0.006
E. coli #G1880E; POLY B = 625, HBV = 0, T2
  MEAN A660: 0.074
E. coli #G1880E; POLY B = 625, HBV = 0, T4
  MEAN A660: 0.330
E. coli #G1880E; POLY B = 625, HBV = 0, T6
  MEAN A660: 0.766
E. coli #G1880E; POLY B = 625, HBV = 0, T8
  MEAN A660: 1.048
E. coli #G1880E; POLY B = 625, HBV = 0, T12
  MEAN A660: 1.238
E. coli #G1880E; POLY B = 625, HBV = 0, T24
  MEAN A660: 1.401
E. coli #G1880E; POLY B = 1250, HBV = 0, T0
  MEAN A660: 0.006
E. coli #G1880E; POLY B = 1250, HBV = 0, T2
  MEAN A660: 0.074
E. coli #G1880E; POLY B = 1250, HBV = 0, T4
  MEAN A660: 0.159
E. coli #G1880E; POLY B = 1250, HBV = 0, T6
  MEAN A660: 0.172
E. coli #G1880E; POLY B = 1250, HBV = 0, T8
  MEAN A660: 0.259
E. coli #G1880E; POLY B = 1250, HBV = 0, T12
  MEAN A660: 0.778
E. coli #G1880E; POLY B = 1250, HBV = 0, T24
  MEAN A660: 1.362
E. coli #G1880E; POLY B = 2500, HBV = 0, T0
  MEAN A660: 0.006
E. coli #G1880E; POLY B = 2500, HBV = 0, T2
  MEAN A660: 0.074
E. coli #G1880E; POLY B = 2500, HBV = 0, T4
  MEAN A660: 0.123
E. coli #G1880E; POLY B = 2500, HBV = 0, T6
  MEAN A660: 0.109
E. coli #G1880E; POLY B = 2500, HBV = 0, T8
  MEAN A660: 0.167
E. coli #G1880E; POLY B = 2500, HBV = 0, T12
  MEAN A660: 0.075
E. coli #G1880E; POLY B = 2500, HBV = 0, T24
  MEAN A660: 1.037
[1]; 0 hrs, doses of what is present: Polymyxin B 3 units, peptide 5 ug
  Average optical densities (OD660): .013
[1]; 0 hrs, doses of what is present: Polymyxin B 6 units, peptide 10 ug
  Average optical densities (OD660): .013
[1]; 2 hrs, doses of what is present: Polymyxin B 3 units, peptide 5 ug
  Average optical densities (OD660): .072
[1]; 2 hrs, doses of what is present: Polymyxin B 6 units, peptide 10 ug
  Average optical densities (OD660): .072
[1]; 4 hrs, doses of what is present: Polymyxin B 3 units, peptide 5 ug
  Average optical densities (OD660): .808
[1]; 4 hrs, doses of what is present: Polymyxin B 6 units, peptide 10 ug
  Average optical densities (OD660): .423
[1]; 6 hrs, doses of what is present: Polymyxin B 3 units, peptide 5 ug
  Average optical densities (OD660): 1.06
[1]; 6 hrs, doses of what is present: Polymyxin B 6 units, peptide 10 ug
  Average optical densities (OD660): .840
[1]; 8 hrs, doses of what is present: Polymyxin B 3 units, peptide 5 ug
  Average optical densities (OD660): 1.08
[1]; 8 hrs, doses of what is present: Polymyxin B 6 units, peptide 10 ug
  Average optical densities (OD660): .911
